From patent publication US8722670B2, “Selective NR2B antagonists” (Bristol-Myers Squibb Company, priority 2011, dated 2014)

These compounds were tested against T1, hNR2B (Homo sapiens, UniProt Q13224) (assay: Electrophysiology NMDA receptor experiments: two electrode voltage-clamp in Xenopus laevis oocytes, hNR2B IC50). Conditions: hNR2B activity class, 50 μM glutamate, 30 μM glycine.
T1 construct: expressed in transfected cells; host or cells: Xenopus laevis oocytes, cRNA-injected
Format: cell-based

T1 sequence (Q13224 27-1484, other chains not shown): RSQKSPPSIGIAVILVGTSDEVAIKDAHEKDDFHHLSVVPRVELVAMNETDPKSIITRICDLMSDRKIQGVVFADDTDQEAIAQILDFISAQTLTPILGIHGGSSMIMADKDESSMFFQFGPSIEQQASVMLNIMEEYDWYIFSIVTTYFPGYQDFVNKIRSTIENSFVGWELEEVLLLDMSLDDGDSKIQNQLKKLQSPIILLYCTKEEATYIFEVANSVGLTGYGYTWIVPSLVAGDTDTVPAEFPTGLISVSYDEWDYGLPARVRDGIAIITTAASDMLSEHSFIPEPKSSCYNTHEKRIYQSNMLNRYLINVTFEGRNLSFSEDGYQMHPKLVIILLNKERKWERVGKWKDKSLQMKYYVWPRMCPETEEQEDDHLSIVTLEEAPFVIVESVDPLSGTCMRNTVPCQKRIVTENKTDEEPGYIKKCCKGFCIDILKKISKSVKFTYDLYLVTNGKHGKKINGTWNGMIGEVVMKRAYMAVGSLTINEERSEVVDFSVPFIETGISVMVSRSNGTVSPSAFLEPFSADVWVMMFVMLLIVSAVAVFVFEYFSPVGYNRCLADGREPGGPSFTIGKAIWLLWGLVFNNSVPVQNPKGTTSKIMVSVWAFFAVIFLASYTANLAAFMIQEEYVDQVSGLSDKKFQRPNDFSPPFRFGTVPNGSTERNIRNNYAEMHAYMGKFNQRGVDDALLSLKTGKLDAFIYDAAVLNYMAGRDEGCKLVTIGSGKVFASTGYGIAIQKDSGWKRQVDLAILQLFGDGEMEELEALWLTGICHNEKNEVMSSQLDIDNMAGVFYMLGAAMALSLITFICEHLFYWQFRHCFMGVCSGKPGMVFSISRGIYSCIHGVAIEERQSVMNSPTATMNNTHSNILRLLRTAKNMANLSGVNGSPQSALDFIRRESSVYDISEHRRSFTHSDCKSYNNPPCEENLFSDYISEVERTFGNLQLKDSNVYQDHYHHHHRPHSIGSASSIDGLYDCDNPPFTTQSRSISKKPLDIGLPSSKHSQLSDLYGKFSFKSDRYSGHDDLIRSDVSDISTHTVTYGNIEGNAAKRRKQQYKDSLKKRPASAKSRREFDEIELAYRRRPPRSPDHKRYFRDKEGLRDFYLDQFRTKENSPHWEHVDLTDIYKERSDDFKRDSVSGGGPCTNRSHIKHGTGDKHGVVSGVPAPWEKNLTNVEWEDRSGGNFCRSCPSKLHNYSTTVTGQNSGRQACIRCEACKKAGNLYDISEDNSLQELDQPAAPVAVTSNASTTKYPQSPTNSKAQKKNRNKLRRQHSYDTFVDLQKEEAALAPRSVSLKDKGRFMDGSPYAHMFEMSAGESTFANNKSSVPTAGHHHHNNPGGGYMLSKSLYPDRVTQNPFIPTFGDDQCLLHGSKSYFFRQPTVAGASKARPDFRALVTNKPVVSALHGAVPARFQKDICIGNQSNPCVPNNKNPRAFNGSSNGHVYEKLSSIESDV

| IC50 | Compound |
| --- | --- |
| < 0.2 µM | CC(Oc1ccc2[nH]c(=O)ccc2c1)c1nnc(Nc2ccc(Cl)c(Cl)c2)o1 (single isomer, unassigned) [Example 110] |

These compounds were tested against T2, hNR2B (Homo sapiens, UniProt Q05586+Q13224) in the same assay as above. Conditions: voltage clamp -40 mV, 50 μM glutamate, 30 μM glycine, read-out: hNR2B IC50.
T2 construct: expressed in transfected cells; host or cells: Xenopus laevis oocytes, cRNA-injected
Format: cell-based

T2 sequence (Q13224 27-1484, other chains not shown): as above

| Compound | IC50 |
| --- | --- |
| O=C1CCc2cc(OCc3nnc(Cc4ccc(Cl)c(Cl)c4)[nH]3)ccc2N1 [Example 284, 6-((5-(3,4-dichlorobenzyl)-4H-1,2,4-triazol-3-yl)methoxy)-3,4-dihydroquinolin-2(1H)-one] | 20 µM |
| O=c1ccc2cc(OCc3nnc(Cc4ccc(Cl)c(Cl)c4)[nH]3)ccc2[nH]1 [Example 285, 6-((5-(3,4-dichlorobenzyl)-4H-1,2,4-triazol-3-yl)methoxy)quinolin-2(1H)-one] | 5 µM |
| O=C1CCc2cc(OCc3nnc(-c4ccc(Cl)cc4)[nH]3)ccc2N1 [Example 286, 6-((5-(4-chlorophenyl)-4H-1,2,4-triazol-3-yl)methoxy)-3,4-dihydroquinolin-2(1H)-one] | 3 µM |

The next lines start with the values.

| IC50 | Compound |
| --- | --- |
| 3.8 µM | O=C1CCc2cc(OCc3nc(Cc4ccc(Cl)cc4)no3)ccc2N1 [Example 287, 6-((3-(4-chlorobenzyl)-1,2,4-oxadiazol-5-yl)methoxy)-3,4-dihydroquinolin-2(1H)-one] |
| > 10 µM | O=C1CCc2cc(OCCCc3noc(-c4ccc(Cl)cc4)n3)ccc2N1 [Example 288, 6-(3-(5-(4-chlorophenyl)-1,2,4-oxadiazol-3-yl)propoxy)-3,4-dihydroquinolin-2(1H)-one] |
| 2.4 µM | O=c1ccc2cc(OCc3nnc(Cc4ccc(Cl)c(Cl)c4)o3)ccc2[nH]1 [Example 289, 6-((5-(3,4-dichlorobenzyl)-1,3,4-oxadiazol-2-yl)methoxy)quinolin-2(1H)-one] |
| 4.8 µM | O=C1CCc2cc(OCc3nnc(C(O)c4ccc(Cl)c(Cl)c4)o3)ccc2N1 (stereo not drawn) [Example 290, 6-((5-((3,4-dichlorophenyl)(hydroxy)methyl)-1,3,4-oxadiazol-2-yl)methoxy)-3,4-dihydroquinolin-2(1H)-one] |
| 1.2 µM | O=C1CCc2cc(OCCNc3nnc(-c4ccc(C(F)(F)F)cc4)o3)ccc2N1 [Example 291, 6-(2-(5-(4-(trifluoromethyl)phenyl)-1,3,4-oxadiazol-2-ylamino)ethoxy)-3,4-dihydroquinolin-2(1H)-one] |
